Test results: US8883763B2 (Universite Joseph Fourier, priority 2010, dated 2014)

Assays:
HeLa cells = test: Phase contrast video microscopy of HeLa cells (mitosis duration, blebbing); format: cell-based, human; settings: 0.5 μM
Description: The cells were filmed over 48 hours (image acquisition every 5 minutes) with a Neofluar 40× objective (Zeiss).
The values of FIG. 10A are averages±SEM of two experiments in which 50 mitotic cells were monitored.
For z-series video microscopy, HeLa cells were cultured in glass-bottomed dishes (Iwaki, Milian # BY-3910035). The system comprises: an AXIOVERT 200M inverted microscope (Zeiss®), a thermostated incubation chamber which maintains a temperature of 37° C. and a constant CO2 level of 5%, a motorized platform and a CoolSNAP HQ camera (Roper Scientifics®) coupled with the Metamorph acquisition and analysis system (Universal Imaging™ Corporation). The studies were carried out with ×20 or ×40 objectives (Neofluar Zeiss).
Initially, the acquisition fields were chosen and stored in the memory, then the acquisition parameters were defined, such as the duration of the experiment (48 hours), the interval between the image captures (5 minutes), or the number of sections at depth z (9 sections). At the end of 48 hours of recording, the acquisition batteries were reconstituted with the image at z having the same focus, using the Metamorph software.

HMEC cells = test: Proliferation of HMEC cells (GI50); format: cell-based; settings: Homo sapiens, 120 h, 50 μM to 1 nM for 5 days
Procedure, shortened: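 Cells seeded at 1,000/well (10% confluence) and exposed 5 days (120 h) to compound from 1 nM up to 50–100 μM. Live cells counted by Hoechst 33342 staining under fluorescence microscopy; GI50 is concentration halving proliferation versus control, mean of two triplicate experiments.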

[1] = test system: primary human fibroblasts; test: Indirect immunofluorescence on primary human fibroblasts; format: cell-based; settings: 5 and 10 μM for 24 hours
Description: Primary human fibroblasts (PHFs) were prepared from newborn foreskins as described in (Nahm W K et al., J Dermatol Sci. 2002, 28(2): pp 152-8).
The cells were cultured on slides in 24-well plates and incubated for 24 hours with molecule 6 at different concentrations from 1 to 10 μM.
Corresponding quantities of DMSO were added to the culture medium in the control wells.
The cells were fixed in a solution of PBS with 4% paraformaldehyde (PFA) and 0.1% glutaraldehyde (GA), for 15 minutes and centrifuged at 300 g for the last 10 minutes of the fixing. The slides were rinsed in PBS and the free aldehyde groups were reduced by two successive 5-minute incubations in PBS containing 1 mg/ml of NaBH4.
After one washing with PBS then another with PBST (PBS with 0.5% triton-X-100), the cells are incubated for 30 minutes at ambient temperature with anti α-tubulin monoclonal antibody solution (DM1A clone, Sigma # T6199) diluted to 1:200 in PBST. […] After 3 10-minute washings in PBST, the slides are mounted on plates in Fluorsave™ mounting medium (Calbiochem #345789) and are observed and analyzed using an Axiovert 200M inverted fluorescence microscope (Zeiss®). […]

[2] = test system: human tumours (HTB-177: pulmonary carcinoma) xenografted onto nude mice; test: HTB-177 tumour xenograft in nude mice, necrosis and histology; format: in vivo
Description: All the animal experiments were carried out according to the recommendations of the local ethics commmittee. Nude mice (NCr-nu/nu females (Harlan Laboratories), were housed in a room with filtered air at 22° C., alternating 12 hours of day and 12 hours of night.
HTB177 cells (1×10^6) were implanted sub-cutaneously in the flanks of the mice. The tumour growth was monitored twice weekly by measuring the size of the tumours with a slide caliper, thus making it possible to estimate the volume of the tumour, calculated in mm^3 according to the following formula: length×width×height×π/6.
Treatment commenced when the tumours reached a size of approximately 250 mm^3. The weight of the animal, the volume of the tumour and the extension of the necroses were measured twice weekly.
The animals were sacrificed when the tumour reached 2000 mm^3 or sooner if a clinical sign of suffering, defined by the ethics committee, was observed.
The mice received compound 6 per os in doses and at intervals described in the captions to the figures. The control mice received the vehicle alone (identical volume of beta-cyclodextrin at 60 mg/ml))
After euthanasia of the animals, the tumours were removed, cut sagittally along the median line, frozen rapidly in nitrogen liquid and stored at −80° C. […]

bovine brain tubulin = test: In vitro tubulin polymerization test (turbidimetry at 350 nm); format: biochemical; settings: molecules at 50 μM, calculated at t=3000 s, DMSO control = 100%
Procedure, shortened: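 Bovine brain tubulin was assembled at 37 °C in BRB80 (80 mM K-PIPES pH 6.8, 1 mM MgCl2, 1 mM EGTA) with 1 mM GTP. The 50 μM tests used compounds at 50 μM, run in triplicate. Turbidity at 350 nm was read at t=3000 s and expressed relative to control taken as 100%.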

COc1ccc(-c2[nH]c(=O)c3cc(OC)ccc3c2[N+](=O)[O-])cc1 [Compound 6, 7-methoxy-3-(4-methoxyphenyl)-4-nitroisoquinoline-1(2H)-one]
membrane phenotype of HeLa cells (interphase and mitosis), phase contrast (HeLa cells; 3 hours): cortical blebbings
mitotic arrest of HeLa cells, phase contrast over 24 hours (HeLa cells; 24 hours): accumulation of rounded HeLa cells
mitotic cells remaining rounded (HeLa cells; HeLa cells in mitosis): 20%
mitotic cells showing intense blebbing (HeLa cells; HeLa cells in mitosis): 80%
duration of the mitosis of HeLa cells (HeLa cells; 1 hour under control conditions): 22 h
GI50 (HMEC cells): ≤ 100 nM
phenotype on microtubules and actin cytoskeleton, primary human fibroblasts in interphase [1]: depolymerization of the microtubules and a reorganization of the actin cytoskeleton
phenotype on microtubules and actin cytoskeleton, primary human fibroblasts in mitosis [1]: depolymerization of the spindle microtubules and the formation of ectopic furrows
tumour necrosis (macroscopic) ([2]; 40 mg/kg twice weekly per os, after one cycle of administration (day 7)): central necrosis
necrosis on H&E-stained tumour sections ([2]; 48 hours after administration of 40 mg/kg): extensive areas of necrosis
Tubulin polymerization inhibition (bovine brain tubulin): + ((+) signifies that the molecule induces tubulin assembly inhibition in vitro comprised between 6 and 25% of the DMSO control.)
